Data reported in patent US12116371B2, “Substituted pyridines as irreversible inhibitors of menin-MLL interaction” (BIOMEA FUSION, INC., priority 2018, dated 2024).
Read-outs that look alike come from different tables or passages of the source.

Legend:
HL-60 cells [1] = assay: Long-term proliferation (LTP) assay, CellTiterGlo (Example 103); format: cell-based; details: for IC50: Homo sapiens
Experimental: (§1) The day of the experiment (TO) all the cell line suspensions were counted by Cell Viability Analyser, Vi-CELL and properly diluted with fresh medium to obtain the cell density reported in the Test System paragraph.
(§2) Cells were tested after 4 passages after thawing.
(§3) 200 μL/well and 150 μL/well of cell suspension were added into the 0.4 µL/well and 0.3 μL/well compound plates, respectively. • Cell plate containing 200 μL/well suspension was incubated at 37° C. in a humidified incubator with 5% CO2. • From each well of the 150 µL/well cell assay plate, 100 μL were harvested and transferred into a 96-well Optiplate (Perkin Elmer, Cat. n. 6005290) and cell viability was measured as described in 4.3 paragraphs (TO). • After four days in culture (T4) 150 μL/well of fresh medium were added into a new […] copy compound plate. • From each well of the 200 μL/well cell assay plate: • 100 μL were sampled for the cell viability measurement as described in 4.3 paragraphs (T4). • 50 μL were harvested and added to the 150 μL/well compound plate prepared as described in the first point to dilute 1:4 the cell suspension. • The cell assay plate diluted and containing 200 µL/well suspension were incubated at 37° C. in a humidified incubator with 5% CO2.
(§4) At T7-T11-T14 it was proceeded as described in T4, with the exception that no further cell dilution was carried out at T14.
(§5) Plates containing the samples to be tested were equilibrated at room temperature for approximately 30 min and then 30 μL/well of the Promega CellTiterGlo® reagent were added. Contents will be mixed for 5 min on an orbital shaker to induce cell lysis and then incubated at room temperature for an additional 10 min to stabilize the luminescent signal.
(§6) Luminescence was read by using VictorV (Perkin Elmer) multilabel plate reader using the standard protocol for luminescence in 96 well plate.
(§7) Data were expressed as % of inhibition compared to the 0.2% DMSO negative control, and was calculated as follows: % inhibition=100−[(RLU sample)×100/(RLU average controls*)] • *cells containing 0.2% DMSO
(§8) CRCs were analysed by GraphPad and IC50 values were calculated by non-linear regression using 4 parameter-logistic equation. IC50 (M) values were reported in the final data table.

RS4-11 (MLL-AF4) cells = assay: as above; format: cell-based; details: for IC50: Homo sapiens, RS4-11 (MLL-AF4), LTP assay
Experimental: as §1, §2, §3, §4, §5, §6, §7, §8

MV4-11 (MLL-AF4) cells [2] = assay: Cell proliferation inhibition, CellTiterGlo viability assay, 4 days (Example 102); format: cell-based, human; details: 4 days treatment; for IC50: Homo sapiens, 96 h
From the text: (§9) The objective of the study was to evaluate the ability of compounds of the invention, inhibitors of Menin/MLL interaction to inhibit cell proliferation. The proliferation inhibitory effect was investigated in two human MLL-leukemia cells selected on the bases of MLL fusion protein and listed in Table 1. HL-60 cell line was used as negative control (Table 3).
(§10) ATP is present in all metabolically active cells and is considered as a marker for cell viability and proliferation. The metabolic cell activity was determined using the CellTiter-Glo kit from Promega, an ATP monitoring system based on the production of luminescence by the reaction of ATP with added UltraGlo® recombinant luciferase (Kawano et al., 2016), according to the supplier's experimental recommendations.
(§11) The described assay evaluates the ability of representative compounds of invention to inhibit the cell proliferation in the human MLL-leukemia cells plus a negative control cell line.
(§12) The assay provides potency values (IC50) for each test compound at a single time point Day 4 (T4).
(§13) Seven concentrations of the NCEs (2.00E-05-6.67E-06-2.22E-06-7.41E-07-2.47E-07-8.23E-08-2.74E-08M), were assessed in duplicate in an individual test occasion in all the cell lines. MI-503 (Borkin et al., 2015) was used as reference compound and was tested at the same concentrations as the NCEs. 100% of proliferation is represented by the untreated cells (0.2% DMSO). The cell growth was monitored up to 4 days in culture.
(§14) MV4-11, MOLM-13 and HL-60 cells (see Table 2) were maintained in RPMI-1640 medium (Invitrogen, Cat. n. 618700, Batch n. 1965930) supplemented with 10% of Heat Inactivated FBS (Invitrogen, Cat n. 10500, Batch n. 08Q8078K) and 1% Pen-Strep (Invitrogen, Cat. N. 15140, Batch n. 1910859) and cultured at 37° C. in a humidified incubator with 5% CO2. All the cell lines grow in suspension and the cell density was maintained in a range of 2×10^5-1×10^6 viable cells/ml. Cells were pelleted at 130 g×5 min and conditioned medium was used to dilute the cell suspension.
(§15) Cells were plated in 96-well flat bottom microtiter plates at cell density of 15,000 cells/ml for HL-60, 1000 cells/ml for MOLM-13 and 10,000 cell/ml for MV4-11. Cells were treated with 0.2% DMSO (Sigma, D8418, batch n. SHBH4245V) or serial dilutions of compounds ([…]) in DMSO (0.2% final concentration). Cells were incubated in a 5% CO2 incubator at 37° C. for 4 days. A CellTiterGlo viability assay (Promega) was employed. Luminescence was read by using VictorV (Perkin Elmer) multilabel plate reader using the standard protocol for luminescence in 96 well plate. The experiment was performed in duplicate.
(§16) Data were expressed as % of inhibition compared to the 0.2% DMSO negative control, and was calculated as follows: % inhibition=100−[(RLU sample)×100/(RLU average controls*)]*cells containing 0.2% DMSO
(§17) CRCs were analysed by GraphPad and IC50 values were calculated by non-linear regression using 4 parameter-logistic equation. IC50 (μM) values were reported in the final data table. The curve fittings were performed leaving free all the parameters. Any constrain were reported in the results table.

MOLM-13 (MLL-AF9) cells [3] = assay: as above; format: cell-based, human; details: 4 days treatment; for IC50: Homo sapiens, 96 h
From the text: as §9, §10, §11, §12, §13, §14, §15, §16, §17

MV4-11 (MLL-AF4) cells [4] = assay: Long-term proliferation (LTP) assay, CellTiterGlo (Example 103); format: cell-based, human; details: for IC50: Homo sapiens, MV4-11 (MLL-AF4), LTP assay
Experimental: as §1, §2, §3, §4, §5, §6, §7, §8

MOLM-13 (MLL-AF9) cells [5] = assay: as above; format: cell-based, human; details: for IC50: Homo sapiens, MOLM-13 (MLL-AF9), LTP assay
Experimental: as §1, §2, §3, §4, §5, §6, §7, §8

HL-60 cells [6] = assay: Cell proliferation inhibition, CellTiterGlo viability assay, 4 days (Example 102); format: cell-based; details: 4 days treatment; for IC50: Homo sapiens, 96 h
From the text: as §9, §10, §11, §12, §13, §14, §15, §16, §17

[7] = 96 h, Day 4, LTP assay, read-out: Day 4 IC50
[8] = 168 h, Day 7, LTP assay, read-out: Day 7 IC50
[9] = 264 h, Day 11, LTP assay, read-out: Day 11 IC50
[10] = 336 h, Day 14, LTP assay, read-out: Day 14 IC50
[11] = 96 h, Day 4, read-out: Day 4 IC50
[12] = 168 h, Day 7, read-out: Day 7 IC50
[13] = 264 h, Day 11, read-out: Day 11 IC50
[14] = 336 h, Day 14, read-out: Day 14 IC50

IC50 (HL-60 cells [1]; [7])	IC50 (HL-60 cells [1]; [8])	IC50 (HL-60 cells [1]; [9])	IC50 (HL-60 cells [1]; [10])	IC50 (RS4-11 (MLL-AF4) cells; [11])	IC50 (RS4-11 (MLL-AF4) cells; [12])	IC50 (RS4-11 (MLL-AF4) cells; [13])	IC50 (MV4-11 (MLL-AF4) cells [4]; [11])	IC50 (MV4-11 (MLL-AF4) cells [4]; [12])	IC50 (MV4-11 (MLL-AF4) cells [4]; [13])	IC50 (MV4-11 (MLL-AF4) cells [4]; [14])	IC50 (MOLM-13 (MLL-AF9) cells [5]; [11])	IC50 (MOLM-13 (MLL-AF9) cells [5]; [12])	IC50 (MOLM-13 (MLL-AF9) cells [5]; [13])	IC50 (MOLM-13 (MLL-AF9) cells [5]; [14])	Structure (SMILES)	other results
790 nM	600 nM	780 nM	890 nM	550 nM	112 nM	> 5000 nM	760 nM	580 nM	550 nM	380 nM	830 nM	450 nM	500 nM	720 nM	C=CC(=O)NC1CN(c2ccnc(NC(=O)Nc3ccc(-c4cc5c(N6CCOCC6)ncnc5[nH]4)cc3)c2)C1 [Compound 1]	% max (MV4-11 (MLL-AF4) cells [2]): 98%; IC50 (MV4-11 (MLL-AF4) cells [2]; read-out: IC50): 150 nM; IC50 (MV4-11 (MLL-AF4) cells [2]; read-out: pIC50 (converted)): 151 nM; % max (MOLM-13 (MLL-AF9) cells [3]): 85%; IC50 (MOLM-13 (MLL-AF9) cells [3]; read-out: IC50): 200 nM; IC50 (MOLM-13 (MLL-AF9) cells [3]; read-out: pIC50 (converted)): 200 nM; % max (HL-60 cells [6]; CellTiterGlo): 80%; IC50 (HL-60 cells [6]; CellTiterGlo, read-out: pIC50 (converted)): 195 nM; IC50 (HL-60 cells [6]; read-out: IC50): 190 nM
1150 nM	680 nM	850 nM	890 nM	1450 nM	1550 nM	> 5000 nM	650 nM	460 nM	350 nM	350 nM	1020 nM	410 nM	320 nM	330 nM	CN(C)C/C=C/C(=O)NC1CN(c2ccnc(NC(=O)Nc3ccc(-c4cc5c(N6CCOCC6)ncnc5[nH]4)cc3)c2)C1 [Compound 15]	effect on cell viability at T4 (HL-60 cells [1]; T4, increasing concentrations): fully inhibited; effect on cell viability at T4 (RS4-11 (MLL-AF4) cells; RS4;11, T4, increasing concentrations): fully inhibited; effect on cell viability at T4 (MV4-11 (MLL-AF4) cells [4]; MV4-11, T4, increasing concentrations): fully inhibited; effect on cell viability at T4 (MOLM-13 (MLL-AF9) cells [5]; MOLM-13, T4, increasing concentrations): fully inhibited
